US20090029954A1, “PROGESTERONE-RECEPTOR ANTAGONIST FOR USE IN BRCA ALONE OR AS COMBINATION WITH ANTIESTROGEN” (priority 2007, published 2009)
Read-outs that look alike come from different tables or passages of the source. Values belong to the compound of their own block, whether it stands above or below them.

How the values were obtained:
Bioavailability = assay type: in vivo; details: compared to ICI 182,780
[1] = administered orally; cited from earlier work
[2] = tested on: mammary tumors in Brca1/p53-deficient model; details: mice with BRCA1- or BRCA2 inactivated in mammary glands; Poole et al., Science 2006; cited from earlier work
[3] = tested on: MCF-10 mammary cells with BRCA1 and BRCA2 knock down; test: Growth of MCF-10 cells with siRNA BRCA1/BRCA2 knock down (Example 3); assay type: cell-based; details: co-treatment; MCF-10 siRNA knock down cells stimulated with progesterone and/or estrogens
Procedure: (§1) MCF-10 mammary cells obtained from ATCC were treated with siRNA knocking down the BRCA1 and BRCA2 gene.
(§2) Cell growth in comparison to untransfected and mock transfected cells was compared. In a second step cells were stimulated either with progesterone and/or with estrogens. […] The effects on progesteron receptor protein expression were further investigated.

tumor cells = test: Apoptosis of tumor cells
progesterone receptor [4] = target: T1, progesterone receptor (Homo sapiens, UniProt P06401); details: Fuhrmann et al., J. Med. Chem. 2000; cited from earlier work
T1 sequence (P06401 1-933): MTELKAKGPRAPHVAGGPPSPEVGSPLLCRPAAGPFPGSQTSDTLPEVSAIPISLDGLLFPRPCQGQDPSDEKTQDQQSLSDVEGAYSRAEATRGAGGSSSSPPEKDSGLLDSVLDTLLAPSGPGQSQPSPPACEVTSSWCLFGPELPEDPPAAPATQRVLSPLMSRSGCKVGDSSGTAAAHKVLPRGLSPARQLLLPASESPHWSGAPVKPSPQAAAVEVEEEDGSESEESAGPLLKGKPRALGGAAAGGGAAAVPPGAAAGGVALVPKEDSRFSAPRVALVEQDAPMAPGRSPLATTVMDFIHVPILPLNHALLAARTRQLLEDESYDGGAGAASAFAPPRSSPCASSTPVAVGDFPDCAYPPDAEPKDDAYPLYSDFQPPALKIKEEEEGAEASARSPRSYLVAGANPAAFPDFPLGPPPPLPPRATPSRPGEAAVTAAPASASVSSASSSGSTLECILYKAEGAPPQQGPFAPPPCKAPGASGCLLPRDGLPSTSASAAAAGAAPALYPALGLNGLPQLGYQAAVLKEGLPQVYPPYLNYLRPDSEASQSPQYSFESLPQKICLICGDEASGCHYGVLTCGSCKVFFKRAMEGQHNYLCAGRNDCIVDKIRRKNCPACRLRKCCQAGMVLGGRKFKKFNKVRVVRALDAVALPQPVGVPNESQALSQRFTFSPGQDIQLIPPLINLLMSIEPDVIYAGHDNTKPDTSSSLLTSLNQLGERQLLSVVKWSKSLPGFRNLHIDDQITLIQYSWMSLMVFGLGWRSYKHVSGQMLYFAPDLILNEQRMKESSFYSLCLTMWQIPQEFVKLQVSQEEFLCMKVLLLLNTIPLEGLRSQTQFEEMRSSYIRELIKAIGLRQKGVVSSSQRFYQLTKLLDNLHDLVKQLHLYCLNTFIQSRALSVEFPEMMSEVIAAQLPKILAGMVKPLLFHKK

progesterone receptor [5] = target: T1, progesterone receptor; test: Progesterone receptor protein expression/stability after siRNA BRCA1 knock down (Example 3); assay type: cell-based
Procedure: as §1, §2

[6] = tested on: BRCA1-, respectively BRCA2-mediated mammary carcinogenesis; test: Mammary tumor formation in transgenic mice with breast-specific inactivation of p53 and BRCA1/BRCA2 (Example 2); assay type: in vivo; details: mice monitored weekly for tumor formation; placebo group median tumor latency 6.6 months
Excerpt: To address the specific roles of progesterone receptors in BRCA1- and BRCA2-mediated tumorigenesis, transgenic mice with an organ specific inactivation of p53 and BRCA1, respectively BRCA2 in the breast tissue have been studied. Inactivation of both BRCA1, respectively BRCA2 and p53 or c-myc genes in the mouse mammary gland mimics the majority of human BRCA1-associated tumors, which also harbor p53 mutations.
Because progesterone is a potent mitogen for BRCA1, respectively BRCA2 p53 or c-myc Crec mammary epithelial cells, it was tested whether blockade of the progesterone receptor activity by the progesterone receptor antagonist 11β-(4-acetylphenyl)-17β-hydroxy-17α-(1,1,2,2,2-pentafluoroethyl)-estra-4,9-dien-3-one could prevent or delay mammary carcinogenesis. Mice were treated with a placebo or with 11β-(4-acetylphenyl)-17β-hydroxy-17α-(1,1,2,2,2-pentafluoroethyl)-estra-4,9-dien-3-one. The mice were monitored weekly for tumor formation. The median tumor latency of was 6.6 months for the placebo control group with all mice developing palpable tumors.

progesterone receptor [7] = target: T1, progesterone receptor; test: Endocrine profile of the progesterone-receptor antagonist
progesterone receptor [8] = target: T1, progesterone receptor; test: Progesterone receptor protein expression/stability after siRNA BRCA1 knock down (Example 1); assay type: cell-based
Procedure: (§3) MCF-10 mammary cells and T47D breast cancer cells obtained from ATCC were treated with siRNA knocking down the BRCA1 and BRCA2 gene.
as §2

[9] = tested on: MCF-10 mammary cells and T47D breast cancer cells with BRCA1 and BRCA2 knock down; test: Growth of breast cells with siRNA BRCA1/BRCA2 knock down (Example 1); assay type: cell-based
Procedure: as §3, §2

bioavailability (Bioavailability): particularly high bioavailability
SMILES: CN(CCCCCCCC(F)(F)C(F)(F)F)CCCCCC1Cc2cc(O)ccc2C2C(F)CC3(C)C(CCC3(C)O)C12 (stereo not drawn) [11β-Fluoro-17α-methyl-7α-{5-[methyl(8,8,9,9,9-pentafluorononyl)-amino]pentyl}-estra-1,3,5(10)-triene-3,17β-diol]

SMILES: CC#C[C@]1(O)CC[C@H]2[C@@H]3CCC4=CC(=O)CCC4=C3[C@@H](c3ccc(N(C)C)cc3)C[C@@]21C [mifepristone]
bioavailability [1]: poor bioavailability
development of mammary tumors [2]: blocks the development of mammary tumors

increased stability of progesterone receptor after BRCA1 knock down (progesterone receptor [5]): could be antagonized
increased stability of progesterone receptor after BRCA1 knock down (progesterone receptor [8]): could be antagonized
SMILES: CC(=O)c1ccc(C2C[C@@]3(C)[C@@H](CC[C@@]3(O)C(F)(F)C(F)(F)F)[C@@H]3CCC4=CC(=O)CCC4=C23)cc1 (stereo partly drawn) [11β-(4-acetylphenyl)-17β-hydroxy-17α-(1,1,2,2,2-pentafluoroethyl)-estra-4,9-dien-3-one]
antagonism of the effects of BRCA1 knock down (increased proliferation in the presence of progesterone) [3]: able to antagonize the effects of BRCA1 knock down
apoptosis of tumor cells (tumor cells): increased apoptosis of tumor cells
antiprogestagenic activity (progesterone receptor [4]): high antiprogestagenic activity
other endocrinological effects (progesterone receptor [4]): little or no other endocrinological effects
palpable tumors [6]: no palpable tumors were detected
endocrine side effects (androgen, estrogen or antiglucocorticoid activity) (progesterone receptor [7]): only very weak or no endocrine side effects
inhibition of the growth of BRCA1 knock down cells ([9]; Example 1): potent inhibition
antagonism of the effects of BRCA1 knock down (increased proliferation in the presence of progesterone) ([9]; co-treatment, siRNA knock down cells stimulated with progesterone and/or estrogens): able to antagonize the effects of BRCA1 knock down
